{"source": "patent US4986985A", "about": "“Method of treating skin virus infections” (Bar Ilan University, priority 1987, dated 1991)", "data": [{"tested_on": "peroxide level in the skin", "assay": "TBA test of peroxide level in skin of adult mice after topical application", "assay_type": "in vivo", "conditions": "0.1% dissolved in Oil of Olay, similar experiments", "excerpt": "Samples of lotions and appropriate controls were applied to mice or rat skin for a fixed period. The application was done once a day. Experiments were terminated by killing the animal, peeling the skin and freezing it in liquid nitrogen. Samples of the frozen skin were homogenized in 0.2M phosphate buffer, pH 6.5. After centrifugation, the supernatant was collected and analyzed for the peroxide value using the TBA (thiobarbituric acid) test as described by Sinnhuber et al, Food Res. 23: 620 (1958). In the experiments which follow, newborn (hairless) rats were used. It is generally considered that the penetration through the skin of newborn rats is better than in adult rats, since at this stage they have not yet developed any fur.\nIn these experiments adult mice (2 months old) were treated as described in Example 2. The grown mice were shaved before applying the lotions to the skin.\nIn this experiment the antioxidant was dissolved in Oil of Olay. Mice were sacrificed after 21 days.", "values": [{"smiles": "COc1ccc(O)c(C(C)(C)C)c1", "note": "[BHA]", "reduction of the level of peroxides": "no reduction of the level of peroxides was observed"}, {"smiles": "Cc1cc(C(C)(C)C)c(O)c(C(C)(C)C)c1", "note": "[BHT]", "reduction of the level of peroxides": "no reduction of the level of peroxides was observed"}, {"smiles": "Cc1c(C)c2c(c(C)c1O)CCC(C)(CCCC(C)CCCC(C)CCCC(C)C)O2", "note": "(stereo not drawn) [alpha tocopherol]", "reduction of the level of peroxides": "no reduction of the level of peroxides was observed"}]}]}
